For one assay, the target named is human Gal-3 (hGal-3) (Homo sapiens (Human), UniProt P17931). Nature of the assay: Competitive binding assay: binding of biotinylated hGal-3 to microplate-adsorbed asialofetuin (ASF). The conditions noted are these: Activity on hGal-3; mean values of several measurements. Summed up:
(§1)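 Spectrophotometric readout (streptavidin-peroxidase, ABTS) of biotinylated galectin retained on ASF-coated wells. Biotinylated hGal-1 or hGal-3, 300-1000 ng/mL, co-incubated with test compound 3 h at 4° C, then washed. Mean IC50 from repeat runs.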

Another assay concerns the target human Gal-1 (hGal-1). Put plainly: Competitive binding assay: binding of biotinylated hGal-1 to microplate-adsorbed asialofetuin (ASF). The conditions noted are these: Activities on hGal-1; mean values of several measurements. In outline:
as §1

13 compounds from patent US12319672B2, “Alpha-D-galactopyranoside derivatives” (Idorsia Pharmaceuticals Ltd, priority 2019, dated 2025) can be followed below.

human Gal-1 (hGal-1), sequence (P09382 2-135 limits assumed): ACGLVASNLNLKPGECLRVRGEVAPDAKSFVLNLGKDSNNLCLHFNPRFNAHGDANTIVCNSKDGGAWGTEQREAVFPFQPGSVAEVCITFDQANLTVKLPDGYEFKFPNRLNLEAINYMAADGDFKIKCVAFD
human Gal-3 (hGal-3), sequence (P17931 whole entry): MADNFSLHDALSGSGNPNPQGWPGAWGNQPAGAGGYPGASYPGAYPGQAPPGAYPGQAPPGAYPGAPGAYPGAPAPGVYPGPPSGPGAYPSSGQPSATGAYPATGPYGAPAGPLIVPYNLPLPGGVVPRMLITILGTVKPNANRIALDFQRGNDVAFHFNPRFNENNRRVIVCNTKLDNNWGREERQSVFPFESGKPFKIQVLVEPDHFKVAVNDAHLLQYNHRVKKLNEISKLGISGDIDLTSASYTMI

What is called IC50 is the concentration at which inhibition is half-maximal. As for `CC(C)(C)OC(=O)N1CCC(c2cc(C[C@H]3O[C@H](CO)[C@H](O)[C@H](n4cc(-c5cc(F)c(F)c(F)c5)nn4)[C@H]3OCC(=O)O)no2)CC1` [Example 2.21, 2-(((2R,3R,4S,5R,6R)-2-((5-(1-(tert-butoxycarbonyl)piperidin-4-yl)isoxazol-3-yl)methyl)-5-hydroxy-6-(hydroxymethyl)-4-(4-(3,4,5-trifluorophenyl)-1H-1,2,3-triazol-1-yl)tetrahydro-2H-pyran-3-yl)oxy)acetic acid], the concentration for half-maximal inhibition (IC50) came to 22 nM at human Gal-3 (hGal-3) and 690 nM at human Gal-1 (hGal-1).
For `CC(C)C(=O)O[C@@H]1[C@@H](n2cc(-c3cc(F)c(F)c(F)c3)nn2)[C@@H](O)[C@@H](CO)O[C@@H]1Cc1cc(C2CCN(C(=O)OC(C)(C)C)CC2)on1` [Example 2.22, tert-butyl 4-(3-(((2R,3R,4S,5R,6R)-5-hydroxy-6-(hydroxymethyl)-3-(isobutyryloxy)-4-(4-(3,4,5-trifluorophenyl)-1H-1,2,3-triazol-1-yl)tetrahydro-2H-pyran-2-yl)methyl)isoxazol-5-yl)piperidine-1-carboxylate], in that order: 200 nM and 27300 nM.
The like results for `CC(C)O[C@@H]1[C@@H](n2cc(-c3cc(F)c(F)c(F)c3)nn2)[C@@H](O)[C@@H](CO)O[C@@H]1Cc1cc(C2CCN(C(=O)OC(C)(C)C)CC2)on1` [Example 2.23, tert-butyl 4-(3-(((2R,3R,4S,5R,6R)-5-hydroxy-6-(hydroxymethyl)-3-isopropoxy-4-(4-(3,4,5-trifluorophenyl)-1H-1,2,3-triazol-1-yl)tetrahydro-2H-pyran-2-yl)methyl)isoxazol-5-yl)piperidine-1-carboxylate] were, in that order, 220 nM and 2050 nM.
For `CC(C)O[C@@H]1[C@@H](n2cc(-c3cc(F)c(F)c(F)c3)nn2)[C@@H](O)[C@@H](CO)O[C@@H]1Cc1cc(C2CCNCC2)on1` [Example 2.24, (2R,3R,4S,5R,6R)-2-(hydroxymethyl)-5-isopropoxy-6-((5-(piperidin-4-yl)isoxazol-3-yl)methyl)-4-(4-(3,4,5-trifluorophenyl)-1H-1,2,3-triazol-1-yl)tetrahydro-2H-pyran-3-ol], in that order: 990 nM and 9610 nM.
For the compound `OC[C@H]1O[C@H](Cc2cc(C3CCNCC3)on2)[C@H](OCC(F)F)[C@@H](n2cc(-c3cc(F)c(F)c(F)c3)nn2)[C@H]1O` [Example 2.26, (2R,3R,4S,5R,6R)-5-(2,2-difluoroethoxy)-2-(hydroxymethyl)-6-((5-(piperidin-4-yl)isoxazol-3-yl)methyl)-4-(4-(3,4,5-trifluorophenyl)-1H-1,2,3-triazol-1-yl)tetrahydro-2H-pyran-3-ol], the results for the IC50 on human Gal-3 (hGal-3) and on human Gal-1 (hGal-1) were 200 nM and 4490 nM, respectively.
For `Cc1ccc(-c2cn([C@H]3[C@@H](O)[C@@H](CO)O[C@H](Cc4cc(C(C)(C)C)on4)[C@@H]3OCC(=O)O)nn2)c(F)c1F` [Example 2.27, 2-(((2R,3R,4S,5R,6R)-2-((5-(tert-butyl)isoxazol-3-yl)methyl)-4-(4-(2,3-difluoro-4-methylphenyl)-1H-1,2,3-triazol-1-yl)-5-hydroxy-6-(hydroxymethyl)tetrahydro-2H-pyran-3-yl)oxy)acetic acid], in that order: 24 nM and 5280 nM.
Consider `CC(C)(C)c1cc(C[C@H]2O[C@H](CO)[C@H](O)[C@H](n3cc(-c4cc(F)c(F)c(F)c4)nn3)[C@H]2OCC(=O)N2CCOCC2)no1` [Example 2.28, 2-(((2R,3R,4S,5R,6R)-2-((5-(tert-butyl)isoxazol-3-yl)methyl)-5-hydroxy-6-(hydroxymethyl)-4-(4-(3,4,5-trifluorophenyl)-1H-1,2,3-triazol-1-yl)tetrahydro-2H-pyran-3-yl)oxy)-1-morpholinoethan-1-one], for which the IC50 at human Gal-3 (hGal-3) stood at 110 nM; at human Gal-1 (hGal-1) it was 2180 nM.
The like results for `CO[C@@H]1[C@@H](n2cc(-c3cc(F)c(F)c(F)c3)nn2)[C@@H](O)[C@@H](CO)O[C@@H]1Cc1cc(C2CCC(NC(=O)[C@@H](NC(=O)OC(C)(C)C)C(C)C)CC2)no1` (stereo partly drawn) [Example 2.29, tert-butyl ((S)-1-(((1R,4S)-4-(5-(((2R,3R,4S,5R,6R)-5-hydroxy-6-(hydroxymethyl)-3-methoxy-4-(4-(3,4,5-trifluorophenyl)-1H-1,2,3-triazol-1-yl)tetrahydro-2H-pyran-2-yl)methyl)isoxazol-3-yl)cyclohexyl)amino)-3-methyl-1-oxobutan-2-yl)carbamate] were, in that order, 17 nM and 2330 nM.
For `CO[C@@H]1[C@@H](n2cc(-c3cc(F)c(F)c(F)c3)nn2)[C@@H](O)[C@@H](CO)O[C@@H]1Cc1cc(C2CCC(NC(=O)[C@@H](N)C(C)C)CC2)no1` (stereo partly drawn) [Example 2.30, (S)-2-amino-N-((1R,4S)-4-(5-(((2R,3R,4S,5R,6R)-5-hydroxy-6-(hydroxymethyl)-3-methoxy-4-(4-(3,4,5-trifluorophenyl)-1H-1,2,3-triazol-1-yl)tetrahydro-2H-pyran-2-yl)methyl)isoxazol-3-yl)cyclohexyl)-3-methylbutanamide], in that order: 72 nM and 1980 nM.
The like results for `CC(C)(C)c1cc(C[C@H]2O[C@H](CO)[C@H](O)[C@H](n3cc(-c4cc(F)c(F)c(F)c4)nn3)[C@H]2OCC(=O)O)on1` [Example 2.37, 2-(((2R,3R,4S,5R,6R)-2-((3-(tert-butyl)isoxazol-5-yl)methyl)-5-hydroxy-6-(hydroxymethyl)-4-(4-(3,4,5-trifluorophenyl)-1H-1,2,3-triazol-1-yl)tetrahydro-2H-pyran-3-yl)oxy)acetic acid] were, in that order, 71 nM and 1740 nM.
For `CNC(=O)CO[C@@H]1[C@@H](n2cc(-c3cc(F)c(F)c(F)c3)nn2)[C@@H](O)[C@@H](CO)O[C@@H]1Cc1cc(C(C)(C)C)on1` [Example 2.38, 2-(((2R,3R,4S,5R,6R)-2-((5-(tert-butyl)isoxazol-3-yl)methyl)-5-hydroxy-6-(hydroxymethyl)-4-(4-(3,4,5-trifluorophenyl)-1H-1,2,3-triazol-1-yl)tetrahydro-2H-pyran-3-yl)oxy)-N-methylacetamide], the figures for the IC50 at human Gal-3 (hGal-3) and on human Gal-1 (hGal-1) were 190 nM and 1990 nM, respectively.
The like results for `CC(C)(C)c1cc(C[C@H]2O[C@H](CO)[C@H](O)[C@H](n3cc(-c4cc(F)c(F)c(F)c4)nn3)[C@H]2OCC(=O)N2CC[C@@H](O)C2)no1` [Example 2.39, 2-(((2R,3R,4S,5R,6R)-2-((5-(tert-butyl)isoxazol-3-yl)methyl)-5-hydroxy-6-(hydroxymethyl)-4-(4-(3,4,5-trifluorophenyl)-1H-1,2,3-triazol-1-yl)tetrahydro-2H-pyran-3-yl)oxy)-1-((R)-3-hydroxypyrrolidin-1-yl)ethan-1-one] were, in that order, 110 nM and 6680 nM.
For `CC(C)(C)c1cc(C[C@H]2O[C@H](CO)[C@H](O)[C@H](n3cc(-c4cc(F)c(F)c(F)c4)nn3)[C@H]2OCC(=O)N2CC(O)C2)no1` [Example 2.40, 2-(((2R,3R,4S,5R,6R)-2-((5-(tert-butyl)isoxazol-3-yl)methyl)-5-hydroxy-6-(hydroxymethyl)-4-(4-(3,4,5-trifluorophenyl)-1H-1,2,3-triazol-1-yl)tetrahydro-2H-pyran-3-yl)oxy)-1-(3-hydroxyazetidin-1-yl)ethan-1-one], in that order: 130 nM and 4580 nM.
